Measured values published in patent US20240109883A1, “Anti-Tumor Compositions and Methods” (priority 2020, published 2024).

Columns and labels:
Format in all cases: cell-based
MRC5 4d Toxicity Assay = details: human, confluent MRC5 cells, DAPI cell count, read-out: MRC5 4 d Tox: CC50
Procedure: MRC5 cells were seeded in 96-well plates 1-2 days prior to treatment to ensure 100% confluence. On the day of treatment, cells were washed once and growth media was replaced. Compound (in DMSO) was added to cells using the following dilution scheme: 25, 12.5, 4.16, 1.4, 0.46, 0.15, 0.05 μM. Test concentrations were assayed in duplicate and included 0 μM (DMSO) control wells. Plates were incubated for 4 days. After treatment, cells were washed, fixed with 4% PFA and stained with DAPI. Plates were imaged using a Cytation 3 plate reader and nuclear DAPI staining was used to quantify cell survival. Dose-response plots were generated using CDD Vault to calculate CC50s.

[1] = system: human cytomegalovirus (HCMV); test: Antiviral activity against human cytomegalovirus (HCMV) in MRC5 cells; details: for IC50 / IC90: Human betaherpesvirus 5, 168 h, MRC5 cells, MOI 0.01 IU per cell, 7 days post infection, mCherry positive cells; for Selectivity Index: SI50: MRC5 TOX 7 d CC50 relative to HCMV IC50
Procedure: To assess their antiviral activity, some compounds were tested against human cytomegalovirus (HCMV) in vitro. Human MRC5 cells were grown to confluency (˜1.0×10^4 cells/well) in 96-well plate format in Dulbecco's Modified Eagle Medium (DMEM) supplemented with 10% fetal bovine serum (FBS) 2 mM L-glutamine, 0.1 mM non-essential amino acids, 10 mM HEPES, and 100 U/ml each of penicillin and streptomycin and infected with an HCMV variant expressing mCherry tagged pUL99 (the product of late viral UL99 gene) at a multiplicity of 0.01 infectious unit (IU) per cell. Assays were performed in triplicate. One hour later, medium of the cells was replaced with fresh medium containing the indicated compounds at 25, 12.5, 6.25, 3.13, 1.56, 0.78, 0.39 μM or the carrier in which the compounds are dissolved (DMSO). Final concentration of DMSO was 0.5% in each treatment. Virus yield in the culture was determined at 7 days post infection by quantification of fluorescent (mCherry positive) cells in each well by fluorescent microscopy. Results were plotted using CDD Vault (CDD Vault was developed by Collaborative Drug Discovery, Inc., 1633 Bayshore Hwy, Suite 342, Burlingame, CA 94010) in order to calculate IC50s and IC90s.

MCF7 cells = test: MCF7 Cell Growth Inhibition Assay; details: Homo sapiens, 24 h, 10% serum, DAPI cell count, 4-pt dilution from 10 μM
Procedure: MCF7 cells were seeded in 96-well plates at 10% confluence 24 h prior to treatment. Compound was added to cells in full growth media containing 10% serum, using a 2-fold, 4-pt dilution scheme beginning from 10 μM (10, 5, 2.5, 1.25 μM). Plates were incubated for 24 h. After treatment, cells were washed, fixed with 4% PFA and stained with DAPI. Plates were imaged using a Cytation 3 plate reader and nuclear DAPI staining was used to quantify cell number. % Growth relative to vehicle-treated (DMSO) control wells was plotted using Excel (See FIGS. 1-8). IC50s were calculated by fitting the data points to the following standard equation:
Growth=1−[Cmpd]^n/(IC50^n+[Cmpd]^n)
where [Cmpd] is the molar concentration of compound, the IC50 is the concentration where half-maximal effect is seen, and n is the Hill coefficient.

MRC5 TOX 7 d = details: human

| Structure (SMILES) | CC50 at 4 days (MRC5 4d Toxicity Assay) | IC50 [1] | IC90 [1] | Selectivity Index: SI50 [1] | GI50 (MCF7 cells) | CC50 at 7 d (MRC5 TOX 7 d) |
| --- | --- | --- | --- | --- | --- | --- |
| CN(C)C(=O)Nc1ccc2c(c1)CN(c1ncc(Cc3ccc(-n4cccn4)cc3)s1)CC2 [Example 022] | > 25 µM | 0.536 µM | > 4.43 µM | >8.3 | 18.3 µM | > 4.43 µM |
| CNC(=O)Nc1ccc2c(c1)CN(c1ncc(Cc3ccc(-n4cccn4)cc3)s1)CC2 [Example 021] | > 25 µM | 1.17 µM | > 4.43 µM | >2.5 | 18.3 µM | > 2.89 µM |
| CN1CC(Oc2ccc(Cc3cnc(N4CCc5ccc(NC(N)=O)cc5C4)s3)cc2)C1 [Example 006] | – | 3.37 µM | > 50 µM | 12.9 | – | 43.4 µM |
| CN(C(N)=O)c1ccc2c(c1)CN(c1ncc(Cc3ccc(N4CCOCC4)cc3)s1)CC2 [Example 012] | – | 2.13 µM | > 4.24 µM | >23.5 | – | > 50 µM |
| CCOc1ccc(Cc2cnc(N3CCc4ccc(N(C)C(N)=O)cc4C3)s2)cc1 [Example 009] | – | 2.04 µM | 7.43 µM | >24.4 | – | > 50 µM |
| NC(=O)Nc1cnc2c(c1)CN(c1ncc(Cc3ccc(N4CCOCC4)cc3)s1)CC2 [Example 018] | – | 16.1 µM | 17.7 µM | >3.1 | – | > 50 µM |
| CCOc1ccc(Cc2cnc(N3CCc4ncc(NC(N)=O)cc4C3)s2)cc1 [Example 017] | – | 6.46 µM | 47.5 µM | 7.3 | – | 47.3 µM |
| NC(=O)Nc1ccc2c(c1)CN(c1ncc(Cc3ccc(N4CCOC4=O)cc3)s1)CC2 [Example 003] | > 25 µM | 5.77 µM | > 6.77 µM | >1.2 | 17.5 µM | > 6.77 µM |
| NC(=O)Nc1ccc2c(c1)CN(c1ncc(Cc3ccc(N4CCS(=O)(=O)CC4)cc3)s1)CC2 [Example 002] | – | 2.59 µM | 7.58 µM | >19.3 | – | > 50 µM |
| CN(C(N)=O)c1ccc2c(c1)CN(c1ncc(Cc3ccc(OCC4CC4)cc3)s1)CC2 [Example 010] | – | 2.44 µM | 7.97 µM | 6.9 | – | 16.9 µM |
| CN(C(N)=O)c1ccc2c(c1)CN(c1ncc(Cc3ccc(-n4cccn4)cc3)s1)CC2 [Example 020] | > 25 µM | 1.24 µM | 4.7 µM | 2.9 | 2.3 µM | 3.63 µM |
